Among the data in patent US7235664B2, “Anthranilamides with heteroarylsulfonyl side chain, process of preparation, and use” (Sanofi-Aventis Deutschland GmbH, priority 2001, dated 2007) are melting point values, retold here.

SMILES strings stand for the structures.

What is called melting point is the temperature of the solid-liquid transition. Regarding `CC[C@H](NC(=O)c1cc(F)ccc1NS(=O)(=O)c1cccc2cccnc12)c1ccccc1` [Example 52, (S)-5-Fluoro-2-(quinoline-8-sulfonylamino)-N-(1-phenylpropyl)-benzamide], the melting point came to 163 °C.
